Data: US20230295201A1 (Gilead Sciences, Inc., priority 2020, published 2023)
Where two headings read alike, the source gives them in different places.

Experiments:
Format in all cases: cell-based
RSV A2 = test: RSV NHBE EC50 (RSV A2 antiviral assay in normal human bronchial epithelial cells); settings: NHBE cells, RSV A2, 4 days, read-out: RSV NHBE EC50
HRV16 = HRV16 HELA EC50 (cytopathic effect in H1-HeLa cells)
Method in brief: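 H1-HeLa cells seeded one day before, given 3-fold serial compound dilutions in triplicate just prior to infection with pre-titrated virus. Incubated 96 h at 33 °C/5% CO2; protection from cytopathic effect read as viability by CellTiter-Glo luminescence, normalised to infected untreated (0%) and uninfected (100%) controls.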

RSV strain A2 = test: RSV HEp-2 EC50 (infectious cytopathic cell protection assay); settings: HEp-2 cells, RSV A2, 4 days, read-out: RSV HEp-2 EC50
Method in brief: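 HEp-2 cells mixed with titered RSV A2 at 50,000 cells/ml were added to plates holding 3-fold serial compound dilutions in DMSO, then incubated 4 days at 37° C. Cytoprotection was read as cell viability by CellTiter-Glo luminescence and converted to percent inhibition against 0% and 100% inhibition controls.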

DENV2 replicon = test: DENV-2 Huh-7 Rep EC50 (replicon luminescence); settings: Huh-7 replicon cells, 48 hours, read-out: DENV-2 Huh-7 Rep EC50
Method in brief: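 Huh-7 cells carrying a DENV2 replicon, 5,000 cells/well, were incubated with dosed compounds for 48 h at 37° C. EnduRen live-cell substrate was added 1.5 h before luminescence reading. EC50 came from dose-response against DMSO-only wells.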

[1] = human respiratory syncytial virus, NHBE, 96 h
[2] = 96 h, H1-HeLa cells, 33° C., read-out: HRV16 HELA EC50
[3] = human respiratory syncytial virus, HEp-2, 96 h
[4] = Dengue virus, DENV2, Huh-7, 48 h

SMILES	EC50 (RSV A2; [1]) [nM]	EC50 (HRV16; [2]) [nM]	EC50 (RSV strain A2; [3]) [nM]	EC50 (DENV2 replicon; [4]) [nM]	EC50 (RSV A2) [nM]	EC50 (DENV2 replicon) [nM]	EC50 (HRV16; H1-HeLa cells, 96 h, 33° C.; read-out: HRV16 HELA EC50) [nM]	EC50 (RSV strain A2) [nM]
C[C@H](NP(=O)(OC[C@@]1(C#N)O[C@@H](c2ccc3c(N)ncnn23)[C@H](O)[C@@H]1O)Oc1ccccc1)C(=O)OCC1CC1 (mixture of isomers) [Example 8, (2S)-cyclopropylmethyl 2-(((((2R,3S,4R,5S)-5-(4-aminopyrrolo[2,1-f][1,2,4]triazin-7-yl)-2-cyano-3,4-dihydroxytetrahydrofuran-2-yl)methoxy)(phenoxy)phosphoryl)amino)propanoate]	351	472	182	37300				
CC(C)OC(=O)[C@H](C)NP(=O)(OC[C@@]1(C#N)O[C@@H](c2ccc3c(N)ncnn23)[C@H](O)[C@@H]1O)Oc1ccccc1 (mixture of isomers) [Example 77, Isopropyl ((((2R,3S,4R,5S)-5-(4-aminopyrrolo[2,1-f][1,2,4]triazin-7-yl)-2-cyano-3,4-dihydroxytetrahydrofuran-2-yl)methoxy)(phenoxy)phosphoryl)-L-alaninate]	1150	1420	464	49800				
CCC(CC)COC(=O)[C@H](CC)NP(=O)(OC[C@@]1(C#N)O[C@@H](c2ccc3c(N)ncnn23)[C@H](O)[C@@H]1O)Oc1ccccc1 (mixture of isomers) [Example 88, (2S)-2-ethylbutyl 2-(((((2R,3S,4R,5S)-5-(4-aminopyrrolo[2,1-f][1,2,4]triazin-7-yl)-2-cyano-3,4-dihydroxytetrahydrofuran-2-yl)methoxy)(phenoxy)phosphoryl)amino)butanoate]	36	1060	336	62000				
CC[C@H](NP(=O)(OC[C@@]1(C#N)O[C@@H](c2ccc3c(N)ncnn23)[C@H](O)[C@@H]1O)Oc1ccccc1)C(=O)OC1CCCCC1 (mixture of isomers) [Example 103, (2S)-cyclohexyl 2-(((((2R,3S,4R,5S)-5-(4-aminopyrrolo[2,1-f][1,2,4]triazin-7-yl)-2-cyano-3,4-dihydroxytetrahydrofuran-2-yl)methoxy)(phenoxy)phosphoryl)amino)butanoate]	548	2440	938	> 50000				
CCCCCCCCCCCC(=O)OCCNP(=O)(OC[C@@]1(C#N)O[C@@H](c2ccc3c(N)ncnn23)[C@H](O)[C@@H]1O)Oc1ccccc1 (mixture of isomers) [Example 181, 2-(((((2R,3S,4R,5S)-5-(4-aminopyrrolo[2,1-f][1,2,4]triazin-7-yl)-2-cyano-3,4-dihydroxytetrahydrofuran-2-yl)methoxy)(phenoxy)phosphoryl)amino)ethyl dodecanoate]	43	35	8	5250				
C[C@H](N[P@](=O)(OC[C@@]1(C#N)O[C@@H](c2ccc3c(N)ncnn23)[C@H](O)[C@@H]1O)Oc1ccccc1)C(=O)OC1CCCCC1 (single isomer, unassigned) [Example 6]	124	227	88	2940				
C[C@H](N[P@](=O)(OC[C@@]1(C#N)O[C@@H](c2ccc3c(N)ncnn23)[C@H](O)[C@@H]1O)Oc1ccccc1)C(=O)O[C@H]1CC[C@H](C(F)(F)F)CC1 (single isomer, unassigned) [Example 18]	91	212	114	12300				
C[C@H](N[P@](=O)(OC[C@@]1(C#N)O[C@@H](c2ccc3c(N)ncnn23)[C@H](O)[C@@H]1O)Oc1ccccc1)C(=O)O[C@H]1CC[C@H](C(C)(C)C)CC1 (single isomer, unassigned) [Example 22]	36	200	103	5750				
CCC(CC)COC(=O)[C@H](C)N[P@](=O)(OC[C@@]1(C#N)O[C@@H](c2ccc3c(N)ncnn23)[C@H](O)[C@@H]1O)Oc1ccccc1 (single isomer, unassigned) [Example 25]	127	135	26	2860				
C[C@H](NP(=O)(OC[C@@]1(C#N)O[C@@H](c2ccc3c(N)ncnn23)[C@H](O)[C@@H]1O)Oc1ccccc1)C(=O)OCC1CCCCC1 (single isomer, unassigned) [Example 247]		317	44		510	12000		
C[C@H](NP(=O)(OC[C@@]1(C#N)O[C@@H](c2ccc3c(N)ncnn23)[C@H](O)[C@@H]1O)Oc1ccccc1)C(=O)OCC1CCCCC1 (single isomer, unassigned) [Example 248]					2620	4720	174	26
C[C@H](NP(=O)(OC[C@@]1(C#N)O[C@@H](c2ccc3c(N)ncnn23)[C@H](O)[C@@H]1O)Oc1ccccc1)C(=O)OCCC(C)(C)C (single isomer, unassigned) [Example 252]			26		31	7000		
C[C@H](NP(=O)(OC[C@@]1(C#N)O[C@@H](c2ccc3c(N)ncnn23)[C@H](O)[C@@H]1O)Oc1ccccc1)C(=O)OCCC(C)(C)C (single isomer, unassigned) [Example 253]					70	2780		20
C[C@H](NP(=O)(OC[C@@]1(C#N)O[C@@H](c2ccc3c(N)ncnn23)[C@H](O)[C@@H]1O)Oc1ccccc1)C(=O)OC1CCCCC1 (stereo partly drawn) [Example 4, (2S)-cyclohexyl 2-(((((2R,3S,4R,5S)-5-(4-aminopyrrolo[2,1-f][1,2,4]triazin-7-yl)-2-cyano-3,4-dihydroxytetrahydrofuran-2-yl)methoxy)(phenoxy)phosphoryl)amino)propanoate]	76	510	96					
C[C@H](NP(=O)(OC[C@@]1(C#N)O[C@@H](c2ccc3c(N)ncnn23)[C@H](O)[C@@H]1O)Oc1ccccc1)C(=O)OCC(C)(C)C (stereo partly drawn) [Example 92, (2S)-neopentyl 2-(((((2R,3S,4R,5S)-5-(4-aminopyrrolo[2,1-f][1,2,4]triazin-7-yl)-2-cyano-3,4-dihydroxytetrahydrofuran-2-yl)methoxy)(phenoxy)phosphoryl)amino)propanoate]	73	225	64					
C[C@H](NP(=O)(OC[C@@]1(C#N)O[C@@H](c2ccc3c(N)ncnn23)[C@H](O)[C@@H]1O)Oc1ccccc1)C(=O)OCCC(C)(C)C (stereo partly drawn) [Example 251, 3,3-dimethylbutyl ((((2R,3S,4R,5S)-5-(4-aminopyrrolo[2,1-f][1,2,4]triazin-7-yl)-2-cyano-3,4-dihydroxytetrahydrofuran-2-yl)methoxy)(phenoxy)phosphoryl)-L-alaninate]			8	3530				
CCC(C)(C)COC(=O)[C@H](C)NP(=O)(OC[C@@]1(C#N)O[C@@H](c2ccc3c(N)ncnn23)[C@H](O)[C@@H]1O)Oc1ccccc1 (stereo partly drawn) [Example 254, 2,2-dimethylbutyl ((((2R,3S,4R,5S)-5-(4-aminopyrrolo[2,1-f][1,2,4]triazin-7-yl)-2-cyano-3,4-dihydroxytetrahydrofuran-2-yl)methoxy)(phenoxy)phosphoryl)-L-alaninate]	46		17	13000				
